We go through two compounds from US8791098B2 (priority 2008, dated 2014).

Values after ≈ are worked out from the molar mass of the structure shown. Where two headings read alike, the source gives them in different places. Where only a bound is given, the exact number is not on record here.

For test [1], the system named is U-2 OS human osteosarcoma cells. Put plainly: cells. Type of test: cell-based. The note with it: Homo sapiens, U2OS, average of two measurements, read-out: IC50. Here is the method:
(§1) Cytotoxicity testing of pretubulysin (AU827), N-desmethyl-pretubulysin (AU816) and Tubulysin A and D was performed as follows: Cells were seeded at 6×10^3 cells per well of 96-well plates in 180 μl complete medium and directly treated with varying concentrations of (pre-)tubulysins diluted in methanol. Each compound was tested in duplicate as well as the internal methanol control. After 5 d incubation, 20 μl of 5 mg/ml MTT (Thiazolyl blue tetrazolium bromide) in PBS was added per well and it was further incubated for 2 h at 37° C. The medium was then discarded and cells were washed with 100 μl PBS before adding 100 μl 2-propanol/10 N HCl (250:1) in order to dissolve formazan granules.
The absorbance at 570 nm was measured using a microplate reader (EL808, Bio-Tek Instruments Inc.), and cell viability was expressed as percentage relative to the respective methanol control. IC50 values were obtained by plotting relative growth inhibition in % against the compound concentration on a logarithmic scale. After sigmoidal curve fitting IC50 values can be determined. The IC50[per ml] are shown in the following table (values represent the average of two measurements):
Similarly cytotoxicity testing of Pretubulysin-related compounds in U-2 OS human osteosarcoma cells was performed and was further compared with AU 339 and AU 954, compounds mentioned in WO2008/106080 and WO2004/046170. The IC50 values are shown in the following table (values represent the average of two measurements): […]

Test [2] has as its system HL-60 cells. The experiment in a line: cells. As to conditions: Homo sapiens. Here is the method:
A given number of cells were cultivated in 96-well plates with serial dilutions of the drugs up to 100 ng/ml. Tubulysin A is used as a positive control, whereas methanol is used as a negative control. After 5 days of incubation the metabolic activities of the cells were measured using MTT-assay as described under the methods section.
The effect of pre-tubulysin 816 and 827 was tested with regard to the growth of other cell lines, including the mouse connective tissues fibroblast L929, the human lung carcinoma cell line A549, the human colon adenocarcinoma cell line SW-480, and the human histiocytic lymphoma cell line U937, in addition to the human myeloid leukemia cell line HL-60.

In test [3] the test system is HL-60. The experiment in a line: cells. Format: cell-based, human. The note with it: Homo sapiens; HL-60, average of two measurements; read-out: IC50. The procedure:
as §1
(§2) The absorbance at 570 nm was measured using a microplate reader (EL808, Bio-Tek Instruments Inc.), and cell viability was expressed as percentage relative to the respective methanol control. IC50 values were obtained by plotting relative growth inhibition in % against the compound concentration on a logarithmic scale. After sigmoidal curve fitting IC50 values can be determined. The IC50[per ml] are shown in the following table (values represent the average of two measurements): […]

Test [4] has as its system A431. Put plainly: cells. Format: cell-based, human. The note with it: Homo sapiens, A-431; A431, average of two measurements; read-out: IC50. Here is the method:
as §1, §2

Test [5] deals with HepG2. The experiment in a line: cells. Format: cell-based, human. The note with it: Homo sapiens; HepG2, average of two measurements; read-out: IC50. The procedure:
as §1, §2

The test system of test [6] is SW480. Put plainly: cells. The note with it: Homo sapiens; SW480, average of two measurements; read-out: IC50. Format: cell-based, human. Here is the method:
as §1, §2

The test system of test [7] is KB3.1. Put plainly: cells. Format: cell-based, human. As to conditions: Homo sapiens, KB 3-1; KB3.1, average of two measurements; read-out: IC50. The procedure:
as §1, §2

The subject of test [8] is PtK2 cells. Type of test: cell-based. The note with it: for concentration at which effects on microtubules and spindle morphologies appear / concentration for complete de-polymerization (disappearance) of interphase microtubules: 24 hours incubation. Here is the method: Cell staining: Ptk2 cells were seeded on round glass coverslips (13 mm in diameter) in 4-well plates. Cells were incubated with the drugs to the given times as indicated for each experiment. For staining the microtubules and the nuclei, cells were firstly fixed with cold (−20° C.) acetone/methanol (1:1) for 10 min. For labelling the microtubules, cells were incubated with a primary monoclonal antibody against α-tubulin (1:500 Sigam) for 45 min at 37° C., followed by a secondary anti-mouse IgG antibody conjugated with Alexa488 (1:2000; Molecular probes) under the same incubations conditions. The nuclei were stained with DAPI (1 μg/ml in PBS). The cells were washed with phosphate buffer saline (PBS) between incubations. Coverslips were mounted by using Prolong Antifade (Molecular Probes) and imaged through a fluorescence microscope (LSM-Zeiss) with appropriate filter set.
Tubulysin A and D are known to induce de-polymerization of the interphase microtubules of mammalian cells and additionally induce a multi-polar spindle pool in mitotic cells (Khalil, M. et al., Chembiochem. 7, 678-683 (2006); Sasse, F., Menche, D. Nat. Chem. Biol. 3, 87-89 (2007)). Here the effect of pre-tubulysin treatment on the morphologies of microtubules and microtubules related structures in PtK2 cells was tested. PtK2 cells were seeded onto glass cover clips in 4 well plates and cultivated for 24 or 48 hours under growth conditions. The cells were then treated with different concentrations of tubulysin A, tubulysin D, pre-tubulysin-816 or pre-tubulysin-827. The control cells were treated only with equivalent amount of methanol (solvent). The cells were thin incubated for further 24 hours before they were fixed as described under the methods section. Fixed cells were then washed with PBS and finally labeled with anti-α-tubulin primary antibodies followed by anti-mouse-alexa-488 secondary antibodies to visualize the microtubules. The nuclei were stained with DAPI.

In test [9] the test system is KB.3.1 cells. The experiment in a line: Cell cycle analysis (FACS, DNA content). Format: cell-based, human. The procedure:
Cell cycle analysis: approximately 10^6 cells were harvested by centrifugation and fixed in −20° C. cold 80% methanol. After 30 min of incubation on ice, the cells were washed with PBS and then with saponin containing PBS (0.1%). For DNA staining cells were incubated for 30 min at 37° C. in a solution containing 20 μg ml^−1 Propidium iodide, and 1 mg ml^−1 RNase. Samples were analysed by FacScan (Becton Dickinson).
All drugs that target the microtubules are known to induce a cell cycle arrest in G2M phase in different cell lines. The ability of pre-tubulysin-816 and -827 on the progress of cell cycle in the cervices carcinoma cell line KB.3.1 was tested. Cells were treated with different concentrations of the drugs and incubated for 24 hours under cultivation conditions. After the incubation time was ended, cells were collected by centrifugation, fixed and the DNA was labeled as described in the method sections. The DNA content of the cells was detected via FACS analysis. The resulting data were calculated using Dean-Jett-Fox algorithm.

Test [10] deals with COS-7. The experiment in a line: cells. Format: cell-based, African green monkey. The note with it: Chlorocebus sabaeus; COS-7, average of two measurements; read-out: IC50. The procedure:
as §1, §2

Where [11] appears, read: comparison with prior art compounds.

Regarding `CC[C@H](C)[C@H](NC(=O)[C@H]1CCCCN1C)C(=O)N(C)[C@H](CCc1nc(C(=O)N[C@H](CCC(=O)O)Cc2ccccc2)cs1)C(C)C` [pre-tubulysin-816, N-desmethyl-pretubulysin], the IC50 in test [1] turned out to be 3.23 ng/mL (≈ 4.92 nM); in test [1] (setting [11]), 3.16 ng/mL (≈ 4.82 nM); in test [2] (HL-60, 120 h) it was 0.15 ng/mL (≈ 0.229 nM); in test [2] (HL-60, read-out: IC50 value), 0.15 ng/mL (≈ 0.229 nM); in test [3] it was 0.22 ng/mL (≈ 0.335 nM); in test [4] it was 0.34 ng/mL (≈ 0.518 nM). In addition, the IC50 in [5] came to 8.75 ng/mL (≈ 13.3 nM); in test [6], 3.16 ng/mL (≈ 4.82 nM); in test [7] it was 26.3 ng/mL (≈ 40.1 nM); in test [10], 9.63 ng/mL (≈ 14.7 nM). For the same compound, in test [8], the “concentration at which effects on microtubules and spindle morphologies appear” value was at least 500 ng/ml. Besides, the “concentration for complete de-polymerization (disappearance) of interphase microtubules” value in test [8] is “around 5 μg/ml”; in test [8] (listed as Pre-tubulysin-816), 5 µg/mL. In addition, the “effect on the interphase microtubules” value in [8] (concentrations up to 250 ng/ml, 24 h) was “did not show any clear effect”. Also, the “G2M cell cycle arrest” value in test [9] (KB.3.1 cells, 24 hours) is on record as “induced an accumulation of the cells in the G2M-phase”.

With `CC[C@H](C)[C@H](NC(=O)[C@H]1CCCCN1C)C(=O)N(C)[C@H](CCc1nc(C(=O)N[C@@H](Cc2ccccc2)C[C@H](C)C(=O)O)cs1)C(C)C` [pre-tubulysin-827, pretubulysin], the 50% inhibitory concentration (IC50) in test [1] was determined as 0.56 ng/mL (≈ 0.836 nM); in test [1] (setting [11]) it was 0.56 ng/mL (≈ 0.836 nM); in test [2] (HL-60, 120 h), 0.017 ng/mL (≈ 0.0254 nM); in [2] (HL-60, read-out: IC50 value), 0.017 ng/mL (≈ 0.0254 nM); in test [3], 0.0142 ng/mL (≈ 0.0212 nM); in [4], 1.24 ng/mL (≈ 1.85 nM). Further, the IC50 in [5] is 0.64 ng/mL (≈ 0.955 nM); in test [6], 0.21 ng/mL (≈ 0.313 nM); in test [7], 2.32 ng/mL (≈ 3.46 nM); in test [10], 1.13 ng/mL (≈ 1.69 nM). Further, in test [8], the “concentration at which effects on microtubules and spindle morphologies appear” value was 50 ng/ml. Further, the results for the “concentration for complete de-polymerization (disappearance) of interphase microtubules” value in test [8] and in [8] (listed as Pre-tubulysin-827) were at least 1 µg/mL and 1 µg/mL, respectively. Also, the “cells accumulated in the G2M-phase” value in test [9] (KB3.1 cells, 100 ng/ml, 24 h (control approximately 30%)) amounted to 65%.

Usually IC50 stands for the concentration at which inhibition is half-maximal.
